Where a SMILES comes first, the peptide text is derived from it.
Target: T1, RPMI 8866 cells (Homo sapiens, UniProt P13612+P26010)
T1 sequence (P13612 34-1032): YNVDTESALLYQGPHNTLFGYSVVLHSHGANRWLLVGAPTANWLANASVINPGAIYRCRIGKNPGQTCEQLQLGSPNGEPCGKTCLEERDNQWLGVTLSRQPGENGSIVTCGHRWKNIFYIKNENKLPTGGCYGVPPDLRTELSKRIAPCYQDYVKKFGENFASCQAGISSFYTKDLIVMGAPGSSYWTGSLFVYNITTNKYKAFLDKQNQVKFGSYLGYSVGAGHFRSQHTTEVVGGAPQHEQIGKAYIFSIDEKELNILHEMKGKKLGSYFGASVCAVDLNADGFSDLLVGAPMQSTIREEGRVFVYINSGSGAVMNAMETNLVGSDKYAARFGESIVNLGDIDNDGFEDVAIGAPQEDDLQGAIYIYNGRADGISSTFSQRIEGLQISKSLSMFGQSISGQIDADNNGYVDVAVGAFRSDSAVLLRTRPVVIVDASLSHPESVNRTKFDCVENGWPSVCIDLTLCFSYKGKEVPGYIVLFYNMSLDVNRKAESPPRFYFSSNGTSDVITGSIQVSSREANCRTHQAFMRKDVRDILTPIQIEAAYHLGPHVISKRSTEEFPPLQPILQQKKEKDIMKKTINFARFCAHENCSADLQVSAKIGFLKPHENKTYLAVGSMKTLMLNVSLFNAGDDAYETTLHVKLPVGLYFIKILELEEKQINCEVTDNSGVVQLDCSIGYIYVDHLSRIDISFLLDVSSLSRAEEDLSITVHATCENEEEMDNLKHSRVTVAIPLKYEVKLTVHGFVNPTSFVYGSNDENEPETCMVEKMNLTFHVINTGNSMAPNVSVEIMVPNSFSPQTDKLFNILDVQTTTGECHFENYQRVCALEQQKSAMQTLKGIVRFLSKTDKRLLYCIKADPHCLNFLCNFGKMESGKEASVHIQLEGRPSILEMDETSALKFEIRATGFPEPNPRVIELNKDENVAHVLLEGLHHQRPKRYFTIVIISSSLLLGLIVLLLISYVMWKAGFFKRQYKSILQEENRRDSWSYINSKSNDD
T1 sequence (P26010 20-798): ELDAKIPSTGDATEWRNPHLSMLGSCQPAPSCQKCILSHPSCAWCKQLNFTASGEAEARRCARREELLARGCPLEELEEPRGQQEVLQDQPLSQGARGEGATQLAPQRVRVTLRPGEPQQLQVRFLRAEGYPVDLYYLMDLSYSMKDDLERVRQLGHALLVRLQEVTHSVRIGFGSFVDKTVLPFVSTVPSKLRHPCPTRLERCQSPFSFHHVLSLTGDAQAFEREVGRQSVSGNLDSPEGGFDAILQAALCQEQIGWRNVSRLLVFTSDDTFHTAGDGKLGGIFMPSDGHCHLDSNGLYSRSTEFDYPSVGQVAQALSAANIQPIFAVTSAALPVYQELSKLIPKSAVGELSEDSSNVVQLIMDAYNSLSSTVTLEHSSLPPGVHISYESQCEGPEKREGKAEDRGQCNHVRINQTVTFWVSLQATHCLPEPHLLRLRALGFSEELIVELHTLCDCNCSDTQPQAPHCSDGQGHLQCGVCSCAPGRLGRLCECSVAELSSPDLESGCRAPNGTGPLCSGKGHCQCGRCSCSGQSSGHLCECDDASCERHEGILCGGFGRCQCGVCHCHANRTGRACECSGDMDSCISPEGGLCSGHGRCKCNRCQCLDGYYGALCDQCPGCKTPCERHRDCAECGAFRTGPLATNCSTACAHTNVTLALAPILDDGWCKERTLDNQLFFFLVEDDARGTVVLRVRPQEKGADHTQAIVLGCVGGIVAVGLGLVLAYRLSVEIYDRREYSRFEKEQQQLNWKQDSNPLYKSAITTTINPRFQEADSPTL
Experiment: α4β7-MAdCAM Cell Adhesion Assay
Format: cell-based
Conditions: thioether monomer peptides, Table 6; read-out: Cell-Adhesion A4B7
How it was run: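 RPMI 8866 cells (200,000/well) in DMEM with 1 mM MnCl2 and 0.1% BSA were allowed to adhere 30-45 min at 37° C to plates coated with rh MAdCAM-1/Fc (200 ng/well) in presence of serially diluted peptide. After washing, bound cells quantified by MTT, absorbance 570 nm, cell-free background subtracted.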

First: CC(C)C[C@@H]1NC(=O)[C@H]([C@@H](C)O)NC(=O)[C@H](CC(=O)O)NC(=O)[C@H](CO)NC(=O)[C@H](CCCNC(=N)N)N(C)C(=O)c2ccccc2CSC[C@@H](C(=O)N[C@@H](Cc2c[nH]c3ccccc23)C(=O)N[C@@H](CCC(=O)O)C(=O)N[C@H](CCCCN)C(N)=O)NC1=O [compound 55] (HELM PEPTIDE1{[meR].S.D.T.L.C.W.E.[dK].[am]}|CHEM1{[O=C(c1ccccc1C[*:2])[*:1]]}$PEPTIDE1,CHEM1,1:R1-1:R1|PEPTIDE1,CHEM1,6:R3-1:R2$$$V2.0)
Second: CC(C)C[C@@H]1NC(=O)[C@H]([C@@H](C)O)NC(=O)[C@H](CC(=O)O)NC(=O)[C@H](CO)NC(=O)[C@H](CCCNC(=N)N)N(C)C(=O)c2ccccc2CSC(C)(C)[C@@H](C(=O)N[C@@H](Cc2c[nH]c3ccccc23)C(=O)N[C@@H](CCC(=O)O)C(=O)N[C@@H](CCN)C(N)=O)NC1=O [compound 93] (HELM PEPTIDE1{[meR].S.D.T.L.[Pen].W.E.[Dab].[am]}|CHEM1{[O=C(c1ccccc1C[*:2])[*:1]]}$PEPTIDE1,CHEM1,1:R1-1:R1|PEPTIDE1,CHEM1,6:R3-1:R2$$$V2.0)
The IC50 of the first is higher: 100 to 1000 nM for the first, 25 to 100 nM for the second. The second is the more potent here.

`CC(C)C[C@@H]1NC(=O)[C@H]([C@@H](C)O)NC(=O)[C@H](CC(=O)O)NC(=O)[C@H](CO)NC(=O)[C@H](CCCNC(=N)N)N(C)C(=O)c2ccccc2CSC(C)(C)[C@@H](C(=O)N[C@@H](Cc2cccc3ccccc23)C(=O)N[C@H](CCC(=O)O)C(=O)N(C)[C@@H](CCCCN)C(N)=O)NC1=O` [compound 69] (HELM PEPTIDE1{[meR].S.D.T.L.[Pen].[O=C([C@H](Cc1cccc2ccccc12)N[*:1])[*:2]].[dE].[meK].[am]}|CHEM1{[O=C(c1ccccc1C[*:2])[*:1]]}$PEPTIDE1,CHEM1,1:R1-1:R1|PEPTIDE1,CHEM1,6:R3-1:R2$$$V2.0) and `CC(=O)NCCCC[C@@H](NC(=O)[C@H](CCC(=O)O)NC(=O)[C@H](Cc1cccc2ccccc12)NC(=O)[C@H]1NC(=O)[C@H](CC(C)C)NC(=O)[C@H]([C@@H](C)O)NC(=O)[C@H](CC(=O)O)NC(=O)[C@H](CO)NC(=O)[C@H](CCCNC(=N)N)N(C)C(=O)c2ccccc2CSC1(C)C)C(N)=O` [compound 89] (HELM PEPTIDE1{[meR].S.D.T.L.[Pen].[O=C([C@H](Cc1cccc2ccccc12)N[*:1])[*:2]].E.[dK].[am]}|PEPTIDE2{[ac]}|CHEM1{[O=C(c1ccccc1C[*:2])[*:1]]}$PEPTIDE1,PEPTIDE2,9:R3-1:R2|PEPTIDE1,CHEM1,1:R1-1:R1|PEPTIDE1,CHEM1,6:R3-1:R2$$$V2.0) fall in the same range of IC50: 100 to 1000 nM for the first, 100 to 1000 nM for the second.

`CC(=O)NCCCC[C@@H](NC(=O)[C@H](CCC(=O)O)NC(=O)[C@H](Cc1c[nH]c2ccccc12)NC(=O)[C@H]1NC(=O)[C@H](CC(C)C)NC(=O)[C@H]([C@@H](C)O)NC(=O)[C@H](CC(=O)O)NC(=O)[C@H](CO)NC(=O)[C@H](CCCNC(=N)N)N(C)C(=O)c2ccccc2CSC1(C)C)C(N)=O` [compound 80] (HELM PEPTIDE1{[meR].S.D.T.L.[Pen].W.E.[dK].[am]}|PEPTIDE2{[ac]}|CHEM1{[O=C(c1ccccc1C[*:2])[*:1]]}$PEPTIDE1,PEPTIDE2,9:R3-1:R2|PEPTIDE1,CHEM1,1:R1-1:R1|PEPTIDE1,CHEM1,6:R3-1:R2$$$V2.0) and `CC(=O)NCCCC[C@@H](NC(=O)[C@@H](CCC(=O)O)NC(=O)[C@H](Cc1c[nH]c2ccccc12)NC(=O)[C@H]1NC(=O)[C@H](CC(C)C)NC(=O)[C@H]([C@@H](C)O)NC(=O)[C@H](CC(=O)O)NC(=O)[C@H](CO)NC(=O)[C@H](CCCNC(=N)N)N(C)C(=O)c2ccccc2CSC1(C)C)C(N)=O` [compound 81] (HELM PEPTIDE1{[meR].S.D.T.L.[Pen].W.[dE].[dK].[am]}|PEPTIDE2{[ac]}|CHEM1{[O=C(c1ccccc1C[*:2])[*:1]]}$PEPTIDE1,PEPTIDE2,9:R3-1:R2|PEPTIDE1,CHEM1,1:R1-1:R1|PEPTIDE1,CHEM1,6:R3-1:R2$$$V2.0) fall in the same range of IC50: 25 to 100 nM for the first, 25 to 100 nM for the second.

`CC(=O)NCCCC[C@@H](NC(=O)[C@@H](CCC(=O)O)NC(=O)[C@H](Cc1ccc(O)cc1)NC(=O)[C@H]1NC(=O)[C@H](CC(C)C)NC(=O)[C@H]([C@@H](C)O)NC(=O)[C@H](CC(=O)O)NC(=O)[C@H](CO)NC(=O)[C@H](CCCNC(=N)N)N(C)C(=O)c2ccccc2CSC1(C)C)C(N)=O` [compound 91] (HELM PEPTIDE1{[meR].S.D.T.L.[Pen].Y.[dE].[dK].[am]}|PEPTIDE2{[ac]}|CHEM1{[O=C(c1ccccc1C[*:2])[*:1]]}$PEPTIDE1,PEPTIDE2,9:R3-1:R2|PEPTIDE1,CHEM1,1:R1-1:R1|PEPTIDE1,CHEM1,6:R3-1:R2$$$V2.0) and `CC(C)C[C@@H]1NC(=O)[C@H]([C@@H](C)O)NC(=O)[C@H](CC(=O)O)NC(=O)[C@H](CO)NC(=O)[C@H](CCCNC(=N)N)N(C)C(=O)c2ccccc2CSC(C)(C)[C@@H](C(=O)N[C@@H](Cc2c[nH]c3ccccc23)C(=O)N[C@H](CCC(=O)O)C(=O)N[C@@H](CCN)C(N)=O)NC1=O` [compound 95] (HELM PEPTIDE1{[meR].S.D.T.L.[Pen].W.[dE].[Dab].[am]}|CHEM1{[O=C(c1ccccc1C[*:2])[*:1]]}$PEPTIDE1,CHEM1,1:R1-1:R1|PEPTIDE1,CHEM1,6:R3-1:R2$$$V2.0) fall in the same range of IC50: 100 to 1000 nM for the first, 100 to 1000 nM for the second.

First: CC(C)C[C@@H]1NC(=O)[C@H]([C@@H](C)O)NC(=O)[C@H](CC(=O)O)NC(=O)[C@H](CO)NC(=O)[C@H](CCCNC(=N)N)N(C)C(=O)c2ccccc2CSC(C)(C)[C@@H](C(=O)N[C@@H](Cc2c[nH]c3ccccc23)C(=O)N[C@@H](CCC(=O)O)C(=O)N[C@@H](CN)C(N)=O)NC1=O [compound 92] (HELM PEPTIDE1{[meR].S.D.T.L.[Pen].W.E.[NC[C@H](N[*:1])C(=O)[*:2]].[am]}|CHEM1{[O=C(c1ccccc1C[*:2])[*:1]]}$PEPTIDE1,CHEM1,1:R1-1:R1|PEPTIDE1,CHEM1,6:R3-1:R2$$$V2.0)
Second: CC(C)C[C@@H]1NC(=O)[C@H]([C@@H](C)O)NC(=O)[C@H](CC(=O)O)NC(=O)[C@H](CO)NC(=O)[C@H](CCCNC(=N)N)N(C)C(=O)c2ccccc2CSC(C)(C)[C@@H](C(=O)N[C@@H](Cc2c[nH]c3ccccc23)C(=O)N[C@H](CCC(=O)O)C(=O)N[C@@H](CN)C(N)=O)NC1=O [compound 94] (HELM PEPTIDE1{[meR].S.D.T.L.[Pen].W.[dE].[NC[C@H](N[*:1])C(=O)[*:2]].[am]}|CHEM1{[O=C(c1ccccc1C[*:2])[*:1]]}$PEPTIDE1,CHEM1,1:R1-1:R1|PEPTIDE1,CHEM1,6:R3-1:R2$$$V2.0)
The IC50 of the first is lower: 25 to 100 nM for the first, 100 to 1000 nM for the second. The first is the more potent here.

Work on `CC(C)C[C@@H]1NC(=O)[C@H]([C@@H](C)O)NC(=O)[C@H](CC(=O)O)NC(=O)[C@H](CO)NC(=O)[C@H](CCCNC(=N)N)N(C)C(=O)c2ccccc2CSC(C)(C)[C@@H](C(=O)N[C@@H](Cc2c[nH]c3ccccc23)C(=O)N[C@@H](CCC(=O)O)C(N)=O)NC1=O` [compound 96] (HELM PEPTIDE1{[meR].S.D.T.L.[Pen].W.E.[am]}|CHEM1{[O=C(c1ccccc1C[*:2])[*:1]]}$PEPTIDE1,CHEM1,1:R1-1:R1|PEPTIDE1,CHEM1,6:R3-1:R2$$$V2.0) yielded an IC50 of 100 to 1000 nM.

Same assay, conditions: thioether peptide dimers, Table 7; read-out: Cell-Adhesion A4B7

`CC(C)C[C@@H]1NC(=O)[C@H]([C@@H](C)O)NC(=O)[C@H](CC(=O)O)NC(=O)[C@H](CO)NC(=O)[C@H](CCCNC(=N)N)N(C)C(=O)C(C)SC[C@@H](C(=O)N[C@@H](Cc2c[nH]c3ccccc23)C(=O)N[C@H](CCCCN)C(N)=O)NC1=O` (single isomer, unassigned) [compound 144] was tested, and the IC50 was > 1000 nM.

— patent US20260217767A1, “NOVEL A4B7 THIOETHER PEPTIDE DIMER ANTAGONISTS” (Protagonist Therapeutics, Inc., priority 2014, published 2026)
